The results in this text go back to publication PMC12426935, “On-Cell Saturation Transfer Difference NMR Spectroscopy on Ion Channels: Characterizing Negative Allosteric Modulator Binding Interactions of P2X7” (Journal of the American Chemical Society, 2025).

The structures appear in SMILES notation. Where two headings read alike, the source gives them in different places.

Assay [1] concerns the target T1, mouse P2X7 (mP2X7) (Mus musculus, UniProt Q9Z1M0).
T1 construct: expressed in transfected cells
T1 sequence (Q9Z1M0 1-595): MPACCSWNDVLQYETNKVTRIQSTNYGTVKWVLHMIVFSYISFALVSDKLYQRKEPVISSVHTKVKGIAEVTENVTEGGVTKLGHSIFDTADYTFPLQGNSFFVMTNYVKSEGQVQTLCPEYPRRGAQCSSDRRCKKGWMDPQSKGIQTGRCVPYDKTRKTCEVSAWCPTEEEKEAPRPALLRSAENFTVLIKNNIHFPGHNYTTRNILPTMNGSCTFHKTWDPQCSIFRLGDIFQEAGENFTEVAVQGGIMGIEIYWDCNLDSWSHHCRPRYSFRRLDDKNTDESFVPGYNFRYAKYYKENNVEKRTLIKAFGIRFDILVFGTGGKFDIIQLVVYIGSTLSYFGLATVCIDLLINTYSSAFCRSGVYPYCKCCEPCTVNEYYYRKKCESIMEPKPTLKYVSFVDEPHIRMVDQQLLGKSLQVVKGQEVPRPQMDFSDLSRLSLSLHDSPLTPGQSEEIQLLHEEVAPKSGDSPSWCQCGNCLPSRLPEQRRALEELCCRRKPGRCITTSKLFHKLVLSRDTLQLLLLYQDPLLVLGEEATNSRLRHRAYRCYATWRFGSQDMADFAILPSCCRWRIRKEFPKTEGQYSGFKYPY
In words: fura-2 intracellular calcium assay on HEK-293 stable cell line expressing mouse P2X7. The class given is cell-based. The settings on record: Mouse P2X7 (Table 1); mean in brackets, n = 3. On the procedure: (§1) Genetically edited HEK-293 cells lacking P2Y2 receptors were used to generate stable cell lines expressing human P2X7 (hP2X7), mouse P2X7 (mP2X7), rat P2X7 (rP2X7), or mutants of the hP2X7 NAM site (F88A, M105A, and F103A). Transfection was performed using lipofectamine 2000 (Fisher Scientific), and cells were subjected to Geneticin (800 μg/mL) selection for 2–3 weeks. This was followed by single cell cloning by limiting dilution in 96-well plates. Individual clones were selected for further study based on ATP-induced TO-PRO-3 uptake on a BD Cytoflex flow cytometer. Cell lines were maintained in DMEM:F12 media supplemented with 10% fetal bovine serum (PanBiotech), penicillin and streptomycin (Fisher Scientific) and kept in a humidified incubator with 5% CO2. Stable P2X7-expressing cells were kept under Geneticin selection at a concentration of 400 μg/mL. Passaging was performed twice weekly using 0.25% Trypsin-EDTA (Fisher Scientific).
P2X7 responses were measured by monitoring intracellular calcium responses using fura-2AM loaded cells. Cells were plated at 2–2.5 × 10^4 cells/well the day before experiments in 96-well plates (NUNC) coated with 50 μg/mL poly-D-lysine (Merck Millipore). A loading buffer containing 2 μM fura-2AM (HelloBio) and 250 μM sulfinpyrazone (Merck Millipore) in a low divalent buffer (145 mM NaCl, 5 mM KCl, 0.2 mM CaCl2, 10 mM HEPES, 13 mM glucose, pH 7.3) was added to cells for 45 min at 37 °C. After loading, the buffer was removed and replaced with calcium-containing extracellular solution (145 mM NaCl, 5 mM KCl, 2 mM CaCl2, 10 mM HEPES, 13 mM glucose, pH 7.3). Responses were measured using a Flexstation 3 plate reader (Molecular Devices) with dual excitation wavelengths of 340 and 380 nm and single emission wavelength of 510 nm. The sample interval was 3.5 s, and each well was recorded for 180 s. Fura-2 ratios were calculated in Softmax Pro v5.4; zero baseline was applied, and responses were measured as normalized area under the curve (AUC). […]

Assay [2] deals with T2, rat P2X7 (rP2X7) (Rattus norvegicus, UniProt Q64663).
T2 construct: expressed in transfected cells
T2 sequence (Q64663 1-595): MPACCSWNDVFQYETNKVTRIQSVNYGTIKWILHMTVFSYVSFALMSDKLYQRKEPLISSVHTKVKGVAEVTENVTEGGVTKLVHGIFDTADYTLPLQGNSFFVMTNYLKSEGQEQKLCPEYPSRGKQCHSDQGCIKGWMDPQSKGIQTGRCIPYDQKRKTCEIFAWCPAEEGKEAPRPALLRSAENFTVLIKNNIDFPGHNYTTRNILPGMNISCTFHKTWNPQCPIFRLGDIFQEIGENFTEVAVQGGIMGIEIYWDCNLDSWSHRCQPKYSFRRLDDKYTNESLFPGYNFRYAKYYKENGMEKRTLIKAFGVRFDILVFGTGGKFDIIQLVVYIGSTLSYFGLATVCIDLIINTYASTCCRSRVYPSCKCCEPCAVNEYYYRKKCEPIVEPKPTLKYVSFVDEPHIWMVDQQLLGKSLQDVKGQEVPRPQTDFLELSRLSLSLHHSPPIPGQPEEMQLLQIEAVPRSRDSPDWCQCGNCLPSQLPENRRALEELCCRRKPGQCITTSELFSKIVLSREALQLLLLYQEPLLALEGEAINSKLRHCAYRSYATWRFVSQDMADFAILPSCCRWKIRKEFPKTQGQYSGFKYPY
As to the kind of experiment: fura-2 intracellular calcium assay on HEK-293 stable cell line expressing rat P2X7. The class given is cell-based. The settings on record: Rat P2X7 (Table 1), n = 3. On the procedure:
as §1
P2X7 responses were measured by monitoring intracellular calcium responses using fura-2AM loaded cells. Cells were plated at 2–2.5 × 10^4 cells/well the day before experiments in 96-well plates (NUNC) coated with 50 μg/mL poly-D-lysine (Merck Millipore). A loading buffer containing 2 μM fura-2AM (HelloBio) and 250 μM sulfinpyrazone (Merck Millipore) in a low divalent buffer (145 mM NaCl, 5 mM KCl, 0.2 mM CaCl2, 10 mM HEPES, 13 mM glucose, pH 7.3) was added to cells for 45 min at 37 °C. After loading, the buffer was removed and replaced with calcium-containing extracellular solution (145 mM NaCl, 5 mM KCl, 2 mM CaCl2, 10 mM HEPES, 13 mM glucose, pH 7.3). Responses were measured using a Flexstation 3 plate reader (Molecular Devices) with dual excitation wavelengths of 340 and 380 nm and single emission wavelength of 510 nm. The sample interval was 3.5 s, and each well was recorded for 180 s. Fura-2 ratios were calculated in Softmax Pro v5.4; zero baseline was applied, and responses were measured as normalized area under the curve (AUC). Dose inhibition curves were plotted using GraphPad Prism v6 nonlinear regression (three parameter fit) and log IC50 values reported.
(A change in cytosolic calcium serves as a functional read-out for many receptors and channels.)

With `O=C(CC12CC3CC(CC(C3)C1)C2)Nc1cccc2nc(NCCNCCO)ccc12` [AZ10606120], the IC50 (in general, the concentration at which inhibition is half-maximal) in assay [1] is 0.524 µM; in assay [2] (log IC50 ± standard error, read-out: Log IC50 (converted)) it was 0.0525 µM; in assay [2] (mean in brackets, read-out: mean IC50), 0.0531 µM.
